According to patent publication US10821195B2, “Compositions for therapeutics, targeted PET imaging and methods of their use” (Memorial Sloan Kettering Cancer Center, priority 2015, dated 2020):
Where “and” joins values, the source holds several entries; their conditions need not be identical. Equal entries are not always repeated.

Assays:
[1] = Partition coefficients of ^89Zr complexes at pH 7.4; assay type: physicochemical
Text: Without having to be bound to any theory, the difference in clearance pathways between the two complexes is the difference in their partitions coefficients.

[2] = EDTA transchelation challenge of ^89Zr complexes; assay type: physicochemical; conditions: 50-fold excess of EDTA, 37° C., various pHs, 7 days
Text: (§1) In contrast, ^89Zr-HOPO is shown to be approximately impervious to the EDTA. […] This represents a significant improvement in the stability of the Zr-ligand complex at lower pH. […] Initially activity is seen in the bladder, gall bladder, and intestines.

[3] = Biodistribution and clearance of ^89Zr-HOPO and ^89Zr-DFO in healthy mice; assay type: in vivo, healthy athymic nude mice; parameters: biodistribution Spleen / biodistribution Stomach / biodistribution Large Intestine / biodistribution Small Intestine / biodistribution Kidney / biodistribution Bladder / biodistribution Muscle / biodistribution Bone / biodistribution Tail / biodistribution Blood / biodistribution Heart / biodistribution Lung / biodistribution Gall Bladder / biodistribution Liver: unit not given here
Text: Significant uptake of ^89Zr-HOPO occurs in the gall bladder and intestines as well as the kidney. […] As ^89Zr-DFO is cleared exclusively through the kidneys and not through the hepatobiliary system, it is excreted from the body faster than ^89Zr-HOPO, as evidenced by the blood clearance curve (FIG. 10). While not wishing to be bound to theory, upon conjugation to an antibody, the pharmacokinetics of a ^89Zr-HOPO complex comprising ^89Zr-HOPO and an antibody can be superseded by those of the biomacromolecule, meaning that a difference in clearance pathways between ^89Zr-HOPO and ^89Zr-DFO should not be a concern. However, over the short circulation time of the Zr-ligand complexes, neither DFO nor HOPO show any signs of instability or bone accumulation.

[4] = Stability of ^89Zr complexes in human serum at 37° C. for 7 d (ITLC, SEC); conditions: bare ligand complexes, one week
Description: Seven day old samples of the Zr-ligand complexes were run down a size exclusion column to differentiate protein and ligand.
Serum stability and immunoreactivity of ^89Zr-complexes were evaluated. To determine the stability in serum, ^89Zr-complexes were incubated in human serum at 37° C. for 7 d. The percentage of intact species was monitored by ITLC (Table 9).
^89Zr-ligand and ^89Zr-ligand-antibody complexes were prepared according to the radiolabeling protocol as described above. For each ^89Zr complex, samples were made consisting of 900 μL human serum and 100 μL of the ^89Zr species and were placed in a heat block at 37° C. with agitation. Samples were monitored using radio-TLC before being added to the serum and then after 1 week of incubation. The stability of the complexes was measured as the percentage of ^89Zr that was retained at the origin of the ITLC strip and therefore still intact.

FIG. 2 = experiment: FIG. 2
Text: Table printed on a drawing sheet, FIG. 2
as §1
First reader's note: Cell hatching encodes the percent-intact class given in the legend; the values show stability of the radiometal-chelator complexes against EDTA transchelation.

For O=C1NCCCN2CCCCN3CCCNC(=O)c4cccc(=O)n4[O][89Zr]([O]n4c1cccc4=O)([O]n1c(cccc1=O)C2=O)[O]n1c(cccc1=O)C3=O [^89Zr-HOPO], the “partition coefficient (lipophilicity)” value [1] was “more lipophilic than ^89Zr-DFO”, the “stability to transchelation by EDTA” value [2] was “remains intact for the full 7 days” and the “biodistribution Bladder” value ([3]; 10 min) was 2.04 ± 1.06. The “biodistribution Blood” value ([3]; 10 min) was 3.24 ± 0.66, the “biodistribution Bone” value ([3]; 10 min) was 1.04 ± 0.44 and the “biodistribution Gall Bladder” value ([3]; 10 min) was 6.61 ± 2.87. For the same compound, the “biodistribution Heart” value ([3]; 10 min) was 1.57 ± 0.22, the “biodistribution Kidney” value ([3]; 10 min) was 9.46 ± 2.71 and the “biodistribution Large Intestine” value ([3]; 10 min) was 0.26 ± 0.15. For the same compound, the “biodistribution Liver” value ([3]; 10 min) was 3.29 ± 0.75, the “biodistribution Lung” value ([3]; 10 min) was 1.07 ± 0.17 and the “biodistribution Muscle” value ([3]; 10 min) was 0.36 ± 0.06. For the same compound, the “biodistribution Small Intestine” value ([3]; 10 min) was 5.99 ± 1.18, the “biodistribution Spleen” value ([3]; 10 min) was 0.31 ± 0.04 and the “biodistribution Stomach” value ([3]; 10 min) was 1.22 ± 0.39. The “biodistribution Tail” value ([3]; 10 min) was 4.25 ± 1.46, the Blood/Bone ratio ([3]; 1 h) was 0.6 ± 0.4 and the Muscle/Bone ratio ([3]; 1 h) was 0.34 ± 0.15. For the same compound, the “biodistribution Bladder” value ([3]; 1 h) was 0.73 ± 0.36, the “biodistribution Blood” value ([3]; 1 h) was 0.17 ± 0.10 and the “biodistribution Bone” value ([3]; 1 h) was 0.29 ± 0.09. The “biodistribution Gall Bladder” value ([3]; 1 h) was 6.94 ± 3.38, the “biodistribution Heart” value ([3]; 1 h) was 0.12 ± 0.06 and the “biodistribution Kidney” value ([3]; 1 h) was 1.05 ± 0.51. The “biodistribution Large Intestine” value ([3]; 1 h) was 0.09 ± 0.06, the “biodistribution Liver” value ([3]; 1 h) was 0.22 ± 0.09 and the “biodistribution Lung” value ([3]; 1 h) was 0.17 ± 0.09. The “biodistribution Muscle” value ([3]; 1 h) was 0.10 ± 0.03, the “biodistribution Small Intestine” value ([3]; 1 h) was 1.11 ± 0.35 and the “biodistribution Spleen” value ([3]; 1 h) was 0.09 ± 0.03. For the same compound, the “biodistribution Stomach” value ([3]; 1 h) was 0.30 ± 0.15, the “biodistribution Tail” value ([3]; 1 h) was 0.81 ± 0.34 and the Blood/Bone ratio ([3]; 4 h) was 0.2 ± 0.2. The Muscle/Bone ratio ([3]; 4 h) was 0.4 ± 0.3, the “biodistribution Bladder” value ([3]; 4 h) was 0.58 ± 0.27 and the “biodistribution Blood” value ([3]; 4 h) was 0.05 ± 0.04. The “biodistribution Bone” value ([3]; 4 h) was 0.23 ± 0.12, the “biodistribution Gall Bladder” value ([3]; 4 h) was 1.00 ± 0.41 and the “biodistribution Heart” value ([3]; 4 h) was 0.06 ± 0.01. For the same compound, the “biodistribution Kidney” value ([3]; 4 h) was 0.40 ± 0.14, the “biodistribution Large Intestine” value ([3]; 4 h) was 7.17 ± 2.15 and the “biodistribution Liver” value ([3]; 4 h) was 0.13 ± 0.01. For the same compound, the “biodistribution Lung” value ([3]; 4 h) was 0.08 ± 0.01, the “biodistribution Muscle” value ([3]; 4 h) was 0.09 ± 0.06 and the “biodistribution Small Intestine” value ([3]; 4 h) was 0.12 ± 0.13. For the same compound, the “biodistribution Spleen” value ([3]; 4 h) was 0.06 ± 0.01, the “biodistribution Stomach” value ([3]; 4 h) was 0.50 ± 0.74 and the “biodistribution Tail” value ([3]; 4 h) was 0.29 ± 0.18. The “biodistribution Bladder” value ([3]; 12 h) was 0.54 ± 0.26, the “biodistribution Blood” value ([3]; 12 h) was 0.02 ± 0.00 and the “biodistribution Bone” value ([3]; 12 h) was 0.25 ± 0.07. The “biodistribution Gall Bladder” value ([3]; 12 h) was 2.45 ± 1.02, the “biodistribution Heart” value ([3]; 12 h) was 0.06 ± 0.01 and the “biodistribution Kidney” value ([3]; 12 h) was 0.53 ± 0.23. For the same compound, the “biodistribution Large Intestine” value ([3]; 12 h) was 0.10 ± 0.03, the “biodistribution Liver” value ([3]; 12 h) was 0.09 ± 0.02 and the “biodistribution Lung” value ([3]; 12 h) was 0.06 ± 0.01. The “biodistribution Muscle” value ([3]; 12 h) was 0.06 ± 0.01, the “biodistribution Small Intestine” value ([3]; 12 h) was 0.02 ± 0.01 and the “biodistribution Spleen” value ([3]; 12 h) was 0.05 ± 0.01. The “biodistribution Stomach” value ([3]; 12 h) was 0.01 ± 0.00, the “biodistribution Tail” value ([3]; 12 h) was 0.11 ± 0.04 and the Blood/Bone ratio ([3]; 1 d) was 0.12 ± 0.02. The Muscle/Bone ratio ([3]; 1 d) was 0.35 ± 0.09, the “biodistribution Bladder” value ([3]; 24 h) was 0.28 ± 0.14 and the “biodistribution Blood” value ([3]; 24 h) was 0.02 ± 0.00. For the same compound, the “biodistribution Bone” value ([3]; 24 h) was 0.17 ± 0.03, the “biodistribution Gall Bladder” value ([3]; 24 h) was 1.15 ± 0.59 and the “biodistribution Heart” value ([3]; 24 h) was 0.07 ± 0.01. For the same compound, the “biodistribution Kidney” value ([3]; 24 h) was 0.51 ± 0.29, the “biodistribution Large Intestine” value ([3]; 24 h) was 0.03 ± 0.02 and the “biodistribution Liver” value ([3]; 24 h) was 0.06 ± 0.03. The “biodistribution Lung” value ([3]; 24 h) was 0.06 ± 0.05, the “biodistribution Muscle” value ([3]; 24 h) was 0.06 ± 0.01 and the “biodistribution Small Intestine” value ([3]; 24 h) was 0.02 ± 0.00. The “biodistribution Spleen” value ([3]; 24 h) was 0.06 ± 0.01, the “biodistribution Stomach” value ([3]; 24 h) was 0.02 ± 0.00 and the “biodistribution Tail” value ([3]; 24 h) was 0.05 ± 0.01. The Blood/Bone ratio ([3]; […]) was 3.1 ± 1.5, the Muscle/Bone ratio ([3]; […]) was 0.35 ± 0.16 and the clearance route ([3]; healthy mice) was “cleared through both renal and hepatobiliary excretion”. The “stability in human serum (ITLC and SEC)” value [4] was “stable in serum over 7 days”, the “% INTACT STARTING SPECIES BY INCUBATION TIME | 1 h” value (FIG. 2) was 99.8±0.4% and 99.3±1.3% and 99.0±1.8% and the “% INTACT STARTING SPECIES BY INCUBATION TIME | 7 d” value (FIG. 2) was 99.6±0.7% and 99.2±1.5%. The “% INTACT STARTING SPECIES BY INCUBATION TIME | INITIAL” value (FIG. 2) was 99.7±0.6% and 99.5±0.9%.
